Measured values from PubChem BioAssay (NCI).
Where “and” joins values, the source holds several entries; their conditions need not be identical. Equal values may be shown once.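 Briefly, cells in 96-well plates were exposed to five compound concentrations for 48 h, and endpoints were estimated by linear interpolation. GI50 marks 50% less growth. TGI: total growth inhibition.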

Tests used:
Assay in all cases: NCI-60 cell line screen, 48 h
LOX IMVI melanoma = tested on: LOX IMVI melanoma
SK-MEL-28 melanoma = tested on: SK-MEL-28 melanoma
NCI/ADR-RES ovarian = tested on: NCI/ADR-RES ovarian
NCI-H460 lung = tested on: NCI-H460 lung
ACHN renal = tested on: ACHN renal
SW-620 colon = tested on: SW-620 colon
UO-31 renal = tested on: UO-31 renal
OVCAR-4 ovarian = tested on: OVCAR-4 ovarian
SK-OV-3 ovarian = tested on: SK-OV-3 ovarian
OVCAR-8 ovarian = tested on: OVCAR-8 ovarian

Row | Structure (SMILES) | GI50 (LOX IMVI melanoma) | TGI (LOX IMVI melanoma) | GI50 (SK-MEL-28 melanoma) | TGI (SK-MEL-28 melanoma) | GI50 (NCI/ADR-RES ovarian) | TGI (NCI/ADR-RES ovarian) | GI50 (NCI-H460 lung) | TGI (NCI-H460 lung) | GI50 (ACHN renal) | TGI (ACHN renal) | GI50 (SW-620 colon) | TGI (SW-620 colon) | GI50 (UO-31 renal) | TGI (UO-31 renal) | GI50 (OVCAR-4 ovarian) | TGI (OVCAR-4 ovarian) | GI50 (SK-OV-3 ovarian) | TGI (SK-OV-3 ovarian) | GI50 (OVCAR-8 ovarian) | TGI (OVCAR-8 ovarian)
1 | Cc1cc2nc3c4ccccc4n(CCN(C)C)c3nc2cc1C | 0.748 µM | 3.68 µM | 2.09 µM | 4.73 µM | 1.39 µM | 12.7 µM | 0.709 µM | 9.1 µM | 0.555 µM | 11.3 µM | 0.54 µM | 9.59 µM | 0.726 µM | 14.5 µM | 2.55 µM | 8.94 µM | 3.1 µM | 20.2 µM | 1.16 µM | 12.4 µM
2 | N#CSCC(=O)c1ccc(Cl)cc1 | 3.07 µM | 13.3 µM | 6.17 µM | 19.8 µM | 3.11 µM | 11 µM | 3.16 µM | 18.7 µM | 5.55 µM | 19.9 µM | 2.13 µM | 12.2 µM | 3.23 µM | 13.5 µM | 12.4 µM | > 100 µM | 4.35 µM | 30.8 µM | 4.78 µM | 22.4 µM
3 | O=C(CC1(O)C(=O)Nc2c(Cl)ccc(Cl)c21)c1ccc(C2CC2)cc1 (stereo unspecified) | 0.392 µM | 14 µM | 2.51 µM | 21.9 µM | 0.406 µM | 14.7 µM | 0.622 µM | 9 µM | 2.19 µM | 20.2 µM | 0.29 µM | 13 µM | 1.58 µM | 19.6 µM | 12.8 µM | 32.2 µM | 1.33 µM | 17 µM | 1.43 µM | 13.4 µM
4 | Brc1ccc(Br)nn1 | 1.41 µM | 2.88 µM | 1.42 µM | 2.76 µM | 2 µM | 5.78 µM | 3.04 µM | > 33.8 µM | 1.8 µM | 3.26 µM | 1.66 µM | 6.54 µM | 2.62 µM | 14.9 µM | 1.29 µM | 2.77 µM | 8.64 µM | 20.8 µM | 2.4 µM | 9.26 µM
5 | CNCCOc1nc2c3cnccc3cc(-c3cc(OC)c(OC)c(OC)c3)c2c2ccncc12 | 0.0131 µM | 0.0944 µM | 0.125 µM | 0.525 µM | 0.344 µM | 2.09 µM | < 0.01 µM | 0.103 µM | 0.015 µM | 0.0598 µM | 0.0243 µM | 1.7 µM | 0.0302 µM | 0.156 µM | 0.161 µM | 0.749 µM | 0.0323 µM | 0.185 µM | 0.0418 µM | 0.466 µM
6 | NC(=O)NC(=O)C1CCCCC1C(=O)O (stereo unspecified) | – | > 100 µM | – | > 100 µM | – | > 100 µM | – | > 100 µM | – | > 100 µM | – | > 100 µM | – | > 100 µM | – | > 100 µM | – | > 100 µM | – | > 100 µM
7 | C[C@@H]1CN2[C@H]3[C@@H]1CC[C@]31CCC(=O)O[C@]1(C)[C@@H]1CC[C@H]3CCC=C3[C@@H]12 | > 70 µM | > 70 µM | > 70 µM | > 70 µM | > 70 µM | > 70 µM | > 70 µM | > 70 µM | > 70 µM | > 70 µM | > 70 µM | > 70 µM | 43.5 µM | > 70 µM | > 70 µM | > 70 µM | > 70 µM | > 70 µM | > 70 µM | > 70 µM
8 | CCCCCCC1N=C(N)N=C(N)N1c1ccc(Cl)cc1 (stereo unspecified) | 3.87 µM | 14.7 µM | 8.66 µM | 21.8 µM | > 100 µM | > 100 µM | 4.69 µM | 18.5 µM | > 100 µM | > 100 µM | 4.05 µM | 32.2 µM | 57.1 µM | > 100 µM | 14.4 µM | 60 µM | 20.9 µM | 63.1 µM | 6.43 µM | > 100 µM
9 | CC(=O)OCC(=O)C1(O)C(C)CC2C3C=C(C)C4=Cc5c(cnn5-c5ccccc5)CC4(C)C3C(O)CC21C (stereo unspecified) | 1.69 µM | 4.82 µM | 1.41 µM | 3.01 µM | 1.94 µM | 8.73 µM | 1.43 µM | 3.24 µM | 2.16 µM | 9.03 µM | 1.7 µM | 3.42 µM | 2.47 µM | 8.43 µM | 2.29 µM | 20 µM | – | 5.71 µM | 2.46 µM | 25.5 µM
10 | CC[C@H](C)[C@H](NC(=O)C12CC(NC(C)=O)(C1)C2)C(=O)N(C)[C@H](C[C@@H](OC(C)=O)c1nc(C(=O)N[C@@H](Cc2ccccc2)C[C@H](C)C(=O)OC)cs1)C(C)C | 0.229 µM | > 16.7 µM | 1.81 µM | > 16.7 µM | > 16.7 µM | > 16.7 µM | 0.32 µM | > 16.7 µM | 1.13 µM | > 16.7 µM | 0.0854 µM | > 16.7 µM | > 8.2 µM | > 16.7 µM | 0.885 µM | > 16.7 µM | 0.394 µM | > 10.9 µM | 0.519 µM | > 16.7 µM
11 | COc1ccc(NC(=O)O[C@H]2[C@H](O[C@H]3[C@@H](O)COC(O[C@H]4C[C@H]5[C@@H]6CC=C7C[C@@H](O)CC[C@]7(C)[C@H]6CC[C@]5(C)[C@H]4[C@H](C)C(=O)CCC(C)C)[C@@H]3OC(C)=O)OC[C@@H](O)[C@@H]2O)cc1 (stereo partly specified) | < 0.01 µM | < 0.01 µM | < 0.01 µM | 0.0127 µM | 3.78 µM | > 100 µM | < 0.01 µM | 1.76 µM | 0.118 µM | > 100 µM | < 0.01 µM | 0.0664 µM | 0.024 µM | 0.0978 µM | 0.145 µM | > 100 µM | 0.015 µM | 3.71 µM | 7.75 µM | > 100 µM
12 | CC[C@@]1(OC(=O)CN)C(=O)OCc2c1cc1n(c2=O)Cc2cc3c(N)c4c(cc3nc2-1)OCO4 | < 0.0001 µM | – | 0.0409 µM and 0.119 µM | > 100 µM | 0.000145 µM | 0.0193 µM | < 0.0001 µM | – | < 0.0001 µM | 0.104 µM and 0.0152 µM | 0.00243 µM | > 100 µM | < 0.0001 µM | – | 0.0507 µM and 0.0386 µM | 0.356 µM and 0.658 µM | 0.00015 µM | 0.148 µM | 0.000109 µM | 0.107 µM and 0.0128 µM
